Data published in the supplement of paper PMC11451515.

Tested on: NOMO1
Test: cell viability relative to DMSO control; higher = less cytotoxic
Conditions: 48 h
How it was run: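 Before seeding, each leukemia line was adapted for at least four passages in each medium. NOMO1 or SEM cells (500 cells/well) and P12-Ichikawa cells (1000 cells/well) went into 1536-well plates at 5 μl, then received library compounds in DMSO by pin dosing across 11 threefold concentrations, 47 μM to 0.79 nM. Readout was CellTiter-Glo One luminescence after 48 h at 37°C, and viability is given as a per-plate percentage of DMSO wells, with cell-free wells as background.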

[1] = HPLM + 10% dialyzed FBS, 0.000781 µM
[2] = HPLM + 10% dialyzed FBS, 0.00234 µM
[3] = HPLM + 10% dialyzed FBS, 0.00702 µM
[4] = HPLM + 10% dialyzed FBS, 0.0211 µM
[5] = HPLM + 10% dialyzed FBS, 0.0632 µM
[6] = HPLM + 10% dialyzed FBS, 0.19 µM
[7] = HPLM + 10% dialyzed FBS, 0.569 µM
[8] = HPLM + 10% dialyzed FBS, 1.71 µM
[9] = HPLM + 10% dialyzed FBS, 5.12 µM
[10] = HPLM + 10% dialyzed FBS, 15.4 µM
[11] = HPLM + 10% dialyzed FBS, 46.1 µM
[12] = RPMI 5 mM glucose + 10% FBS, 0.000781 µM
[13] = RPMI 5 mM glucose + 10% FBS, 0.00234 µM
[14] = RPMI 5 mM glucose + 10% FBS, 0.00702 µM
[15] = RPMI 5 mM glucose + 10% FBS, 0.0211 µM
[16] = RPMI 5 mM glucose + 10% FBS, 0.0632 µM
[17] = RPMI 5 mM glucose + 10% FBS, 0.19 µM
[18] = RPMI 5 mM glucose + 10% FBS, 0.569 µM
[19] = RPMI 5 mM glucose + 10% FBS, 1.71 µM
[20] = RPMI 5 mM glucose + 10% FBS, 5.12 µM
[21] = RPMI 5 mM glucose + 10% FBS, 15.4 µM
[22] = RPMI 5 mM glucose + 10% FBS, 46.1 µM
[23] = RPMI 5 mM glucose + 10% dialyzed FBS, 0.000781 µM
[24] = RPMI 5 mM glucose + 10% dialyzed FBS, 0.00234 µM
[25] = RPMI 5 mM glucose + 10% dialyzed FBS, 0.00702 µM
[26] = RPMI 5 mM glucose + 10% dialyzed FBS, 0.0211 µM
[27] = RPMI 5 mM glucose + 10% dialyzed FBS, 0.0632 µM
[28] = RPMI 5 mM glucose + 10% dialyzed FBS, 0.19 µM
[29] = RPMI 5 mM glucose + 10% dialyzed FBS, 0.569 µM
[30] = RPMI 5 mM glucose + 10% dialyzed FBS, 1.71 µM
[31] = RPMI 5 mM glucose + 10% dialyzed FBS, 5.12 µM
[32] = RPMI 5 mM glucose + 10% dialyzed FBS, 15.4 µM
[33] = RPMI 5 mM glucose + 10% dialyzed FBS, 46.1 µM

Compound | cell viability [1] | cell viability [2] | cell viability [3] | cell viability [4] | cell viability [5] | cell viability [6] | cell viability [7] | cell viability [8] | cell viability [9] | cell viability [10] | cell viability [11] | cell viability [12] | cell viability [13] | cell viability [14] | cell viability [15] | cell viability [16] | cell viability [17] | cell viability [18] | cell viability [19] | cell viability [20] | cell viability [21] | cell viability [22] | cell viability [23] | cell viability [24] | cell viability [25] | cell viability [26] | cell viability [27] | cell viability [28] | cell viability [29] | cell viability [30] | cell viability [31] | cell viability [32] | cell viability [33]
OC1CCC(Nc2ncc3nc(Nc4c(F)cc(F)cc4F)n([C@@H]4CCOC4)c3n2)CC1 (some centres undefined) | 112% | 119% | 131% | 143% | 126% | 142% | 143% | 134% | 141% | 131% | 128% | 106% | 113% | 108% | 113% | 107% | 118% | 105% | 110% | 125% | 115% | 121% | 102% | 119% | 115% | 119% | 114% | 128% | 122% | 125% | 135% | 131% | 126%
O=C(Nc1ccc(F)c(C(F)(F)F)c1)Nc1nnc(-c2ccncc2)s1 | 112% | 120% | 127% | 130% | 134% | 136% | 118% | 112% | 118% | 108% | 111% | 123% | 113% | 124% | 106% | 114% | 105% | 121% | 102% | 108% | 107% | 101% | 119% | 124% | 128% | 124% | 125% | 131% | 113% | 128% | 116% | 114% | 100%
CN(NC(=O)CC(=O)NN(C)C(=S)c1ccccc1)C(=S)c1ccccc1 | 85.2% | 101% | 91.7% | 111% | 52.3% | 21.7% | 3.16% | 4.21% | 4.19% | 4.38% | 6.98% | 86% | 80.2% | 97.5% | 95.2% | 53.4% | 16.7% | 3.21% | 3.39% | 4.47% | 6.75% | 15.8% | 83.4% | 89.2% | 82.1% | 94.6% | 39% | 10.7% | 2.4% | 2.7% | 3.68% | 2.79% | 9.44%
O=C(Nc1ccccc1-c1cn2c(CN3CCNCC3)csc2n1)c1cnc2ccccc2n1 | 91.8% | 83% | 71.9% | 77.7% | 82.6% | 92% | 81.9% | 66.6% | 79.3% | 74.2% | 76.3% | 76.6% | 80.6% | 82.9% | 85.1% | 79.7% | 85.3% | 70.3% | 68.1% | 77.1% | 65.6% | 0.639% | 86.3% | 84.6% | 96% | 90.5% | 80% | 80.2% | 74.2% | 86.8% | 79.4% | 69% | 75.1%
FC1=CC=C(SC/2=N/N3\C=N/C(=O)/C(=C3/C=C2)C4=C(Cl)C=CC=C4Cl)C(=C1)F | 99% | 108% | 108% | 114% | 112% | 118% | 119% | 107% | 101% | 99.2% | 50.2% | 98.8% | 93.2% | 104% | 118% | 104% | 115% | 98.3% | 105% | 95.3% | 104% | 43.7% | 98.7% | 114% | 105% | 103% | 101% | 106% | 108% | 110% | 108% | 99% | 72.5%
CCN1\C=C(\C(O)=O)C(=O)C2=CC=C(C)N=C12 | 75.3% | 87.7% | 99.4% | 103% | 102% | 116% | 95.8% | 100% | 81.7% | 88.1% | 47.4% | 81.9% | 103% | 98.2% | 89.1% | 103% | 96.6% | 100% | 91% | 99.9% | 90.6% | 56% | 66.6% | 76.6% | 71.2% | 80.1% | 83.2% | 83.5% | 80.5% | 89.5% | 82.5% | 81.6% | 61.7%
Cc1cnc(NC(=O)Nc2cc(Br)c(C)cc2OC[C@@H]2CNCCO2)cn1 | 122% | 130% | 107% | 127% | 130% | 120% | 95.1% | 69.5% | 30.9% | 35.5% | 26.6% | 108% | 120% | 107% | 107% | 119% | 117% | 101% | 99% | 51% | 94.2% | 22.5% | 111% | 106% | 109% | 116% | 121% | 108% | 110% | 68.1% | 23.1% | 32.8% | 17.9%
Cc1cc2c(F)c(Oc3ncnn4cc(OC[C@@H](C)O)c(C)c34)ccc2[nH]1 | 107% | 87.6% | 103% | 103% | 97.5% | 90.4% | 99.2% | 101% | 98.4% | 88.9% | 69.6% | 86.5% | 103% | 101% | 105% | 98.2% | 98.1% | 94.1% | 88.6% | 88.8% | 97% | 83.6% | 88.5% | 104% | 102% | 92% | 90.3% | 100% | 98.7% | 84.9% | 109% | 79.8% | 67.1%
